Test results as given in patent US9018173B2, “Materials and methods for suppressing inflammatory and neuropathic pain” (Indiana University Research and Technology Corp., priority 2010, dated 2015).
“Also recorded” adds a separate entry of the source. Residues, ends and D or L forms follow the SMILES beside them.

What was measured:
motor coordination = test: Rotarod test for motor coordination; format: in vivo, mouse (C57BL6); conditions: 10 and 50 mg/kg i.p.
Protocol: Rotarod test for motor coordination. The rotarod test was performed as described previously (Onyszchuk, G., He, Y. Y., Berman, N. E., & Brooks, W. M. Detrimental effects of aging on outcome from traumatic brain injury: a behavioral, magnetic resonance imaging, and histological study in mice. J. Neurotrauma. 25, 153-171 (2008)) with slight modifications. Briefly, the latency to fall off a rotating rod was measured at two different rotational accelerations (fast and slow). The rotarod device (IITC Life Science, Inc., Woodland Hills, Calif., USA) consists of a metal rod with hard plastic drums (diameter: 1.25 in) in each of five individual lanes. For slow acceleration, the device was accelerated from 1 rpm to 18 rpm over 90 seconds, with each trial lasting a maximum of 120 seconds. For fast acceleration, the device was accelerated from 1 rpm to 30 rpm over 90 seconds, with each trial lasting a maximum of 120 seconds. The trials ended when the mouse (C57BL6) either fell off the rod or clung to the rod as it made one complete rotation. The rotarod tests were performed before the injection to score the baseline latencies for each animal. These trials also served to acclimate the animals to the test paradigm. […] Performance was evaluated 3 days following injection.

[1] = system: depolarization-induced Ca2+ influx in hippocampal neurons; test: Fura-2 calcium imaging of hippocampal neurons; format: cell-based, rat; conditions: expressed from plasmid; KCl 30 mM; Fura-2AM
Protocol: Referring now to FIG. 19. Overexpressed CBD3 or TAT-CBD3 reduces Ca^2+ influx predominantly via N-Type Ca^2+ channels. (FIGS. 19.A and 19.B) hippocampal neurons cultured for 5 days in vitro were transfected with DNA constructs encoding CBD3 or a scramble sequence using Lipofectamine, and then loaded with the ratiometric Ca^2+-sensitive dye Fura-2AM (3 μM). Changes in [Ca^2+]c, in response to plasma membrane depolarization with potassium chloride (KCl, 30 mM), were recorded using time-lapse, wide-field fluorescence microscopy. […] In both panels, n indicates the number of neurons from which Fura-2 fluorescence was recorded. […] (FIG. 19.D) Ca^2+ influx was monitored in DRG neurons using Fura-2AM. […] Changes in the Fura-2 F340/F380 were monitored for 10 min following stimulation with 45 mM KCl. […]
Isolation and maintenance of primary hippocampal neurons for calcium imaging. […] For fluorescence measurements, neurons were plated on glass-bottomed Petri dishes without preplated glia as previously described. […]
Calcium imaging. […] Osmolarity of the solutions was measured with the osmometer Osmette II™ (Precision Systems Inc., Natick, Mass.). […] Fluorescence was recorded through a 505 nm dichroic mirror at 535±25 nm. The fluorescence images were taken every 5 seconds during the time-course of the experiment using the minimal exposure time that provided acceptable image quality. […]

Molecule | accelerating rotarod performance (motor coordination) | depolarization-induced calcium influx [1]
CC(C)C[C@H](NC(=O)CNC(=O)[C@H](CCCNC(=N)N)NC(=O)[C@@H]1CCCN1C(=O)[C@@H](NC(=O)CNC(=O)[C@H](CCCNC(=N)N)NC(=O)[C@H](CC(C)C)NC(=O)[C@H](CCC(=O)O)NC(=O)[C@H](C)NC(=O)[C@H](CC(C)C)NC(=O)[C@H](CCCNC(=N)N)NC(=O)[C@H](CO)NC(=O)[C@H](CCCNC(=N)N)NC(=O)[C@H](C)NC(=O)[C@H](CCCNC(=N)N)NC(=O)[C@H](CCCNC(=N)N)NC(=O)[C@H](CCCNC(=N)N)NC(=O)[C@H](CCC(N)=O)NC(=O)[C@H](CCCNC(=N)N)NC(=O)[C@H](CCCNC(=N)N)NC(=O)[C@H](CCCCN)NC(=O)[C@H](CCCCN)NC(=O)[C@H](CCCNC(=N)N)NC(=O)CNC(=O)[C@@H](N)Cc1ccc(O)cc1)C(C)C)C(=O)O [TAT-CBD3] (H-YGRKKRRQRRRARSRLAELRGVPRGL-OH; N-terminus and C-terminus assumed) | had no effect in the accelerating rotarod test | 
ARSRLAELRGVPRGL (CBD3) |  | reduced depolarization-induced calcium influx; also recorded: blocked depolarization-induced calcium signaling
